For series [1], the system named is M17 human neuroblastoma cells. The series is described as follows: Relative specific activity of catalase (SpCAT) in cells treated with rotenone. Type of series: cell-based. The settings on record: BE2-M17 cells, 100 nM rotenone, 48 h. As to the method: Hek293T cells (n=2) were plated and transfected the following day with pcDNA (empty vector), Htt-N171-82Q (Htt) or Alpha-synuclein-A53T (α-Syn) plasmids (20 μg) with the calcium phosphate method. BE2-M17 cells (n=2) were plated and treated the following day with 100 nM rotenone dissolved in DMSO or DMSO alone. Hek293T and BE2-M17 cells were collected 48 h after transfection or treatment with DMSO±rotenone, respectively.
The relative specific activity (activity and quantity) of catalase in the cell lysates was determined using the kit ab118184 from Abcam (Cambridge, MA). The measurements were performed in duplicate as per the manufacturer's protocol. Briefly, catalase in cell lysates (0.1–0.2 mg cell lysates per assay) was immunocaptured within the wells of the microplate. An assay buffer, which contains H2O2 that reacts with a substrate to generate a luminescent product, was added to each well. […] Then, the quantity of catalase was measured by adding to each well an anti-catalase primary detector antibody. […] A blue colour (absorbance at 600 nm) developed in proportion to the amount of catalase bound. Luminescence and absorbance measurements were performed on an EnSpire Multilabel Reader 2300 (PerkinElmer). […] The protocol above was then followed to determine activity measurement and catalase quantification.

The target of series [2] is T1, Bovine liver catalase (Bos taurus, UniProt P00432).
T1 construct: Bovine liver catalase was also purchased from Sigma-Aldrich; purchased Sigma-Aldrich; host or cells: bovine liver
T1 sequence (P00432 2-527 limits assumed): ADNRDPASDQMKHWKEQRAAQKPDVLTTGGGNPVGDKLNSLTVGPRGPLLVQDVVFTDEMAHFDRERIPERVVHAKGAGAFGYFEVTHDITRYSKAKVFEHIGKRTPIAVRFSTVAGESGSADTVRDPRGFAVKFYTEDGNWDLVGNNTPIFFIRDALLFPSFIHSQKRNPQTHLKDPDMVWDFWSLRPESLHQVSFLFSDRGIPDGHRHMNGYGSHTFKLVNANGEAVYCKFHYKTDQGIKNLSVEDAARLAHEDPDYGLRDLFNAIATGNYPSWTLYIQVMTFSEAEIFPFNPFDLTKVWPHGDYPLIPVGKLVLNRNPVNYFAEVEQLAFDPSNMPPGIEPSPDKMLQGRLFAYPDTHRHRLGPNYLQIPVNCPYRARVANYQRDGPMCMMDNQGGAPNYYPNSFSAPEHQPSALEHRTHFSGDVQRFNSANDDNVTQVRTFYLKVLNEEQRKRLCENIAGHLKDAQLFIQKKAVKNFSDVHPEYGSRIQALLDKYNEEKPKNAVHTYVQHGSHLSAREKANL
The series is described as follows: Catalase activity (H2O2 disappearance at 240 nm) as a function of thiol concentration. The settings on record: DTPA 0-10 mM, CAT 40 nM pre-incubated 120 min, 25 °C. The class given is biochemical. As to the method:
(§1) CAT activity was measured on an Uvikon 941 spectrophotometer equipped with a temperature controlled water bath (±1 °C) by following the disappearance of H2O2 at 240 nm over 30–120 s at 25 °C. Catalase activity was calculated based on the rate of decomposition of hydrogen peroxide, which is proportional to the reduction of the absorbance at 240 nm. Experiments were carried out in a 3 ml quartz cuvette containing 11.7 mM H2O2 in 50 mM KPi, pH 7.4±1 mM DTPA and the reaction was initiated by adding 0.3–0.6 pmoles of CAT. The effect of biological thiols on the activity of CAT under physiological conditions was determined from a solution of CAT (30–60 nM) preincubated at 25 °C for at least 120 min as a function thiol concentration (0–40 mM for HCys and Cys, 0–100 mM for GSH) in 50 mM KPi, pH 7.4, 1 mM DTPA. Control experiments (biological thiols alone) were also performed in parallel. In each case, 10 μl of the reaction mixture (biological thiols±CAT) was added to the cuvette containing the H2O2 solution to initiate the reaction. Similarly, the effect of biological thiols on the activity of CAT under pathological conditions was determined from a solution of CAT (30–60 nM) containing a 2.124±0.386 molar excess of iron that was preincubated with various concentrations of thiols (0–1 mM) for at least 120 min at 25 °C in 50 mM KP at pH 7.4. The relative half inhibitory concentration (IC50) values were obtained by plotting the relative activity of CAT (A, in per cent) as a function of the concentration of thiol-compounds (RSH) and by fitting the data with the following four parameter logistic equation: A=Amin+(Amax−Amin)/(1+([RSH]/IC50)^n), where Amax is the maximal activity of CAT (constrained at 100%), Amin is the minimum activity achieved at saturating concentration of RSH and n is the Hillslope that characterizes the slope of the curve at its midpoint. The inactivation rate (kinact, min^−1) was extracted from the time course of the inactivation of CAT bioactivity using a fixed concentration of HCys. Accordingly, a solution of CAT (3.5–5 μM) was incubated with 2 mM L-HCys in 50 mM KPi, pH 7.4, 1 mM DTPA. Aliquots (10 μl) were taken at intervals (0–480 min), diluted 1:50 in 50 mM KPi, pH 7.4, 1 mM DTPA and assayed for CAT activity as described above. Similar experiments were performed in the presence of DMPO, 5,5-dimethyl-1,3-cyclohexanedione (dimedone) or SOD at a final concentration of 100 mM, 4 mM or 40 U, respectively. kinact values were obtained by plotting the relative activity of CAT (A, in per cent) as a function of the incubation time and the data were fitted with an exponential decay function: A=A0+ΔA × e^−kinact × t, with A0 and ΔA (A0+ΔA=100%) the residual activity and the percentage of CAT inhibition when t→∞, respectively. The effect of NaSH on the consumption of H2O2 in cell lysates was determined from a solution of cell lysates (0.5–3 mg ml^−1) incubated on ice with various concentrations of NaSH (0–200 μM). The disappearance of H2O2 was then followed at 240 nm for 2–5 min at 25 °C after the addition of 20–25 μl of the reaction mixture in a 3 ml cuvette containing 11.7 mM H2O2 in 50 mM KPi, pH 7.4. The relative half inhibitory concentration (IC50) values for NaSH were obtained by plotting the relative rate of disappearance of H2O2 (ΔA240 nm/min) as a function of the concentration of NaSH and by fitting the data with an hyperbolic decay equation. All the experiments were performed at least in triplicate.

In series [3] the target is T1, Bovine liver catalase. The series is described as follows: Comparative kinetic studies by ultraviolet-visible spectroscopy (compound II and Fe(II) sulfonium formation). The class given is biochemical. To be noted: CAT + 2 mM HCys, 1 mM DTPA, pH 7.4, with the additive named (dimedone 4 mM, BCN 0.1 mM, SOD 40 U). As to the method:
Ultraviolet–visible spectra were recorded on a Cary 300 Scan or an Uvikon 941 spectrophotometer equipped with a temperature equilibrating water bath (±1 °C). Spectral changes over time were recorded when CAT was incubated with L-HCys (0.2 or 2 mM), L-Cys (0.2, 2 or 9 mM) or GSH (1 or 30 mM) at 25 °C in a 1 ml quartz cuvette containing a solution of CAT (2.7–5.9 μM) in 50 mM KPi, pH 7.4±1 mM DTPA. Due to half-site reactivity of biological thiols with CAT, the data were recorded versus a blank containing half the concentrations of CAT used in the experiments, that is, a solution of 1.35–2.95 μM CAT in 50 mM KPi at pH 7.4±1 mM DTPA. Reactions were initiated by addition of the thiol-containing compounds. Comparative kinetic studies were performed by incubating CAT ([…] in the experiment, 1.35–1.5 μM in the blank) with 2 mM L-HCys in 50 mM KPi, pH 7.4, 1 mM DTPA with or without […], 5,5-dimethyl-1,3-cyclohexanedione (dimedone, 4 mM), BCN (0.1 mM) or SOD, 40 U). All the experiments were performed at least in duplicate.

In series [4] the target is T1, Bovine liver catalase. The series is described as follows: Time course of catalase inactivation by HCys (activity test). Type of series: biochemical. To be noted: CAT + 2 mM HCys, 1 mM DTPA, pH 7.4, with the additive named (DMPO 100 mM, dimedone 4 mM, SOD 40 U); n=2±s.d. As to the method:
as §1, with “Similar experiments were performed in the presence of DMPO, 5,5-dimethyl-1,3-cyclohexanedione (dimedone) or SOD at a final concentration of 100 mM, 4 mM or 40 U, respectively. kinact values were obtained by plotting the relative activity of CAT (A, in per cent) as a function of the incubation time and the data were fitted with an exponential decay function: A=A0+ΔA × e^−kinact × t, with A0 and ΔA (A0+ΔA=100%) the residual activity and the percentage of CAT inhibition when t→∞, respectively.” left out, “The disappearance of H2O2 was then followed at 240 nm for 2–5 min at 25 °C after the addition of 20–25 μl of the reaction mixture in a 3 ml cuvette containing 11.7 mM H2O2 in 50 mM KPi, pH 7.4. The relative half inhibitory concentration (IC50) values for NaSH were obtained by plotting the relative rate of disappearance of H2O2 (ΔA240 nm/min) as a function of the concentration of NaSH and by fitting the data with an hyperbolic decay equation. All the experiments were performed at least in triplicate.” left out

In series [5] the test system is crypt and surface epithelial cells. The series is described as follows: Relative specific activity of catalase (SpCAT) in rodent model of DSS-induced colitis. Type of series: in vivo, mice. The settings on record: DSS 3.5% in drinking water for 5 days, cells isolated day 7. As to the method: Seven-week-old male C57BL/6J mice (n=6; Envigo, Gannat, France) were acclimated for 1 week with free access to standard mouse chow and tap water. Each mouse was maintained in a cage under controlled conditions of temperature (23 °C), humidity (55±10%) and light (12:12 h light–dark cycle). Colitis was induced by the addition of DSS (3.5% (wt/vol), 36,000–50,000 MW, MP Biomedicals Illkirch-Graffenstaden, France) to the drinking water for 5 days (n=3). Healthy control animals (n=3) received fresh tap water, only. Two days after DSS arrest (day 7), mice were killed. […]
The relative specific activity (activity and quantity) of catalase in the cell lysates was determined using the kit ab118184 from Abcam (Cambridge, MA). […] Then, the quantity of catalase was measured by adding to each well an anti-catalase primary detector antibody. […] A blue colour (absorbance at 600 nm) developed in proportion to the amount of catalase bound. Luminescence and absorbance measurements were performed on an EnSpire Multilabel Reader 2300 (PerkinElmer). […] The protocol above was then followed to determine activity measurement and catalase quantification.

The kinact is the maximal first-order rate at which the target is inactivated.

On to `C=C(C)[C@H]1Cc2c(ccc3c2O[C@@H]2COc4cc(OC)c(OC)cc4[C@@H]2C3=O)O1` [rotenone], for which the SpCAT versus control entry in series [1] is listed as “inhibited”.
With `O=C(O)CN(CCN(CC(=O)O)CC(=O)O)CCN(CC(=O)O)CC(=O)O` [DTPA, diethylene triamine pentaacetic acid], the “effect on the activity of CAT” value at Bovine liver catalase [2] is “does not interfere”.
For `CC1(C)CC(=O)CC(=O)C1` [Dimedone, 5,5-dimethyl-1,3-cyclohexanedione], the “Ultraviolet–visible spectroscopy kobs(6) (CAT–Fe(IV)=O formation)” value at Bovine liver catalase [3] is “^†0.019±0.003 min^−1”. The kinact at Bovine liver catalase [4] turned out to be 0.0003 s⁻¹.
In the case of bicyclo[6.1.0]nonyne [BCN], on Bovine liver catalase [3], the “Ultraviolet–visible spectroscopy kobs(6) (CAT–Fe(IV)=O formation)” value was found to be 0.018 ± 0.002 min⁻¹.
Take superoxide dismutase [SOD]: the “Ultraviolet–visible spectroscopy kobs(6) (CAT–Fe(IV)=O formation)” value with Bovine liver catalase [3] stood at 0.020 ± 0.002 min⁻¹. For the same compound, on Bovine liver catalase [4], the Activity test kinact came out at 0.018 ± 0.001 min⁻¹.
With Dextran Sulfate Sodium [DSS], the “SpCAT versus untreated mice” value in series [5] is “not modified”.
As for `CC1(C)CCC=[N+]1[O-]` [DMPO, 5,5-Dimethyl-1-Pyrroline-N-Oxide], the “Ultraviolet–visible spectroscopy kobs(6) (CAT–Fe(IV)=O formation)” value at Bovine liver catalase [3] stood at 0.010 ± 0.002 min⁻¹. The kinact at Bovine liver catalase [4] is 0.00015 s⁻¹.

These data come from article PMC5116089, “Sulfheme formation during homocysteine S-oxygenation by catalase in cancers and neurodegenerative diseases” (Nature Communications, 2016).
